Measurements published in patent US7973055B2, “Crystalline forms of a biphenyl compound” (Theravance, Inc., priority 2006, dated 2011).

Molecular target: T1, hM2 receptor (CHO-K1 cells) (Homo sapiens, UniProt P08172)
T1 construct: expressed in transfected cells; host or cells: CHO-K1 cells
T1 sequence (P08172 1-466): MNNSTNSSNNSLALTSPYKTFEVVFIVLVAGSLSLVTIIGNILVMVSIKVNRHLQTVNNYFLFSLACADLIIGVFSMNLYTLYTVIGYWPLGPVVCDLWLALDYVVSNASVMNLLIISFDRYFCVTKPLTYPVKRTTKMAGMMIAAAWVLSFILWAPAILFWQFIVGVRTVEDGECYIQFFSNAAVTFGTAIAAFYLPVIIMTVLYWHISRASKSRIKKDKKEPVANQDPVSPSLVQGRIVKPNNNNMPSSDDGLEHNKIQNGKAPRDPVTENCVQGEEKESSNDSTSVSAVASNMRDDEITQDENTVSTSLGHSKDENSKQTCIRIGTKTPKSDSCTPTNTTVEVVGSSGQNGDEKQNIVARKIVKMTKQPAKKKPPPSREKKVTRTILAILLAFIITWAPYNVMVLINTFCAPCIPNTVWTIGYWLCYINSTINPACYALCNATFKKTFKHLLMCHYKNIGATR
Experiment: Blockade of agonist-mediated inhibition of cAMP accumulation
Assay type: cell-based
Details: CHO-K1 cells expressing hM2; this or a similar assay; read-out: Ki for blockade of oxotremorine-inhibition of forskolin-mediated cAMP accumulation
Protocol: In this assay, the functional potency of a test compound was determined by measuring the ability of the test compound to block oxotremorine-inhibition of forskolin-mediated cAMP accumulation in CHO-K1 cells expressing the hM2 receptor. cAMP assays were performed in a radioimmunoassay format using the Flashplate Adenylyl Cyclase Activation Assay System with ^125I-cAMP (NEN SMP004B, PerkinElmer Life Sciences Inc., Boston, Mass.), according to the manufacturer's instructions.
Cells were rinsed once with dPBS and lifted with Trypsin-EDTA solution (0.05% trypsin/0.53 mM EDTA) as described in the Cell Culture and Membrane Preparation section above. […] The cell pellet was then re-suspended in 10 mL dPBS, and the cells were counted with a Coulter Z1 Dual Particle Counter (Beckman Coulter, Fullerton, Calif.). […]
To measure oxotremorine inhibition of AC activity, 25 μL forskolin (25 μM final concentration diluted in dPBS), 25 μL diluted oxotremorine, and 50 μL cells were added to agonist assay wells. […] Plates were sealed, incubated overnight at room temperature and counted the next morning on a PerkinElmer TopCount liquid scintillation counter (PerkinElmer Inc., Wellesley, Mass.). The amount of cAMP produced (pmol/well) was calculated based on the counts observed for the samples and cAMP standards, as described in the manufacturer's user manual. […]

`CN(CCN1CCC(OC(=O)Nc2ccccc2-c2ccccc2)CC1)C(=O)c1cccc(C(=O)NCCNCc2ccc(O)cc2)c1` [compound of formula I, biphenyl-2-ylcarbamic acid 1-[2-({3-[2-(4-hydroxybenzylamino)ethylcarbamoyl]benzoyl}methylamino)ethyl]piperidin-4-yl ester] was tested, and the Ki was under 5 nM.
